Measured values: PMC12040169 (PLOS Biology, 2025)

Test: in vitro
Settings: human, hela cells, % viability

| Compound | viability at 28.5 h, 10 µM |
| --- | --- |
| O=C(O)c1ccn(-c2ccc(NS(=O)(=O)c3ccc(N4CCCC4=O)cc3)cc2)n1 [CBK298327] | 102% |
| CC(SCc1ccccc1)C(=O)NCC1CCN(c2ccccc2)C1 (stereo not shown) [CBK298329] | 89.5% |
| COc1ccccc1CN(C(=O)Nc1ccccc1Cl)C1CC1 [CBK298332] | 97.2% |
| COc1cccc(NS(=O)(=O)c2cc(CC(=O)O)ccc2OC)c1 [CBK298333] | 93.9% |
| NC(=O)c1ccccc1NC(=O)Cc1ccc2c(c1)CCCC2 [CBK298334] | 88.9% |
| COc1cc(C(C)NC(=O)c2ccc(=O)[nH]n2)ccc1OC1CCCC1 (stereo not shown) [CBK298335] | 89.7% |
| Cc1nccn1CC(C)CNc1ccc(C(=O)c2ccccc2)cc1[N+](=O)[O-] (stereo not shown) [CBK298336] | 80.4% |
| O=C(NC1CCCN(c2ncccn2)C1)c1ccc(-c2ccc(F)cc2)s1 (stereo not shown) [CBK298337] | 88.5% |
| Cc1[nH]c2c(C(=O)Nc3cccc(CN4CCOC4=O)c3)cccc2c1C [CBK298338] | 90.3% |
| O=C(Cc1csc(-c2c(Cl)cccc2Cl)n1)NC[C@H]1CC[C@H](C(=O)O)CC1 [CBK299767] | 85.7% |
| CC(C)(CC(=O)O)CC(=O)Nc1ccc2c(c1)ncn2CCc1ccccc1 [CBK299768] | 91.7% |
| CC1Oc2ccc(S(=O)(=O)Nc3ccc(CCC(=O)O)cc3)cc2NC1=O (stereo not shown) [CBK299769] | 92.3% |
| Cc1cc2c(cc1S(=O)(=O)NCCOc1cccc(C(=O)O)c1)OCC(=O)N2 [CBK299770] | 88.3% |
| CCOc1ccc(-c2cc(C(=O)Nc3cccc(C(=O)O)c3)no2)cc1 [CBK299776] | 93.9% |
| O=C(O)c1cccc(NC(=O)c2ccc(COc3ccc(-c4ccccc4)cc3)o2)c1 [CBK299778] | 105% |
| O=C(O)c1cccc(OCCNS(=O)(=O)c2ccc(N3CCCC3=O)cc2)c1 [CBK299779] | 97.3% |
| CS(=O)(=O)N1CCCC(C(=O)Nc2cccc3cccnc23)C1 (stereo not shown) [CBK299783] | 90.8% |
| O=C(O)C1CC=CCC1C(=O)N1CCN(C(=O)c2ccco2)CC1 (stereo not shown) [CBK299784] | 94.1% |
| O=C(CSc1n[nH]c(=O)n1C1CCCCC1)NCc1ccc(N2CCCC2=O)cc1 [CBK299785] | 105% |
| CCOc1ccc2nc(NS(=O)(=O)c3cc(C(=O)O)c(Cl)cc3Cl)sc2c1 [CBK299789] | 109% |
| CCCCOc1ccc(-c2nonc2NC(=O)COc2ccccc2Cl)cc1 [CBK299792] | 117% |
| O=C(O)c1cccc(S(=O)(=O)Nc2nc3ccc(Cl)cc3s2)c1 [CBK299793] | 103% |

| Compound | viability at 28.5 h, 10 µM |
| --- | --- |
| CC(=O)c1cccc(NC(=O)Nc2ccc(S(=O)(=O)Nc3cc(C)on3)cc2)c1 [CBK299794] | 111% |
| CC(C)(CC(=O)O)CC(=O)Nc1ccc(-c2nc3ccccc3s2)cc1 [CBK299796] | 104% |
| CC(=O)c1ccc(NC(=O)CSc2ncccc2C(=O)O)cc1 [CBK299798] | 94.4% |
| O=C(O)CCCNS(=O)(=O)c1ccc(C2CCCCC2)cc1 [CBK299800] | 95.2% |
| CC(C)CC(=O)Nc1ccc2nc(SCC(=O)O)sc2c1 [CBK299801] | 96.4% |
| COc1cccc(-c2csc(NS(=O)(=O)c3ccc(C)c(C(=O)O)c3)n2)c1 [CBK299803] | 99.1% |
| O=C(O)c1cc(S(=O)(=O)NCCCN2CCOCC2)ccc1Cl [CBK299804] | 96.8% |
| O=C(O)c1cc(/C=C/c2ccc(Br)cc2)nc2ccccc12 [CBK299805] | 94.3% |
| CC(=O)N(c1ccc2oc3c(c2c1)CCCC3)S(=O)(=O)c1ccc(C(=O)O)cc1 [CBK299808] | 92.5% |
| O=C(O)c1cccc(N2C(=O)c3cccc4c(C(=O)c5ccccc5)ccc(c34)C2=O)c1 [CBK299809] | 74.2% |
| CCOc1ccc(S(=O)(=O)Nc2ccc(O)c(C(=O)O)c2)cc1 [CBK299810] | 93.5% |
| Cc1ccc2cc(S(=O)(=O)Nc3cccc(C(=O)O)c3)ccc2c1 [CBK299812] | 101% |
| COc1cc(-c2nnc(CSCc3n[nH]c(=O)[nH]3)o2)cc(OC)c1OC [CBK299814] | 99.5% |
| Cc1nc(-c2ccc(NC(=O)C3CC=CCC3C(=O)O)cc2)cs1 (stereo not shown) [CBK299815] | 99.4% |
| Cc1ccc2cc(S(=O)(=O)NCCCC(=O)O)ccc2c1 [CBK299818] | 95.8% |
| Cc1cc(C(C)(C)C)cc(S(=O)(=O)Nc2ccc(C(=O)O)c(O)c2)c1C [CBK299820] | 88.3% |
| O=C(Cc1ccc(F)cc1)Nc1cccc(-c2noc(-c3ccc(F)cc3)n2)c1 [CBK299821] | 89% |
| CC(C)COc1ccc(-c2nonc2NC(=O)c2cccs2)cc1 [CBK299822] | 103% |
| O=C(O)c1ccc(NC(=O)c2cccc(NC(=O)c3cccc4ccccc34)c2)cc1 [CBK299823] | 101% |
| CC(C)c1ccc(NC(=O)CSc2n[nH]c(=O)n2-c2ccccc2)cc1 [CBK299826] | 89.3% |
| O=C(O)c1ccc(NS(=O)(=O)c2ccc3c(c2)C(=O)c2ccccc2C3=O)cc1 [CBK299828] | 88.3% |
| CC(C)COc1ccc(-c2nonc2NC(=O)c2ccccc2F)cc1 [CBK299831] | 86% |

| Compound | viability at 28.5 h, 10 µM |
| --- | --- |
| O=C(CSc1ncccc1C(=O)O)Nc1nnc(Cc2ccccc2)s1 [CBK299835] | 97.1% |
| O=C(O)c1cccc(N2C(=O)c3cccc4c(Cl)ccc(c34)C2=O)c1 [CBK299836] | 90.3% |
| CCOc1ccc(S(=O)(=O)Nc2ccc(C(=O)O)c(O)c2)cc1 [CBK299837] | 94.2% |
| CCN1C(=O)c2cccc3c(S(=O)(=O)Nc4cccc(C(=O)O)c4)ccc1c23 [CBK299838] | 97.5% |
| Cn1c(=O)n(C)c2cc(S(=O)(=O)Nc3ccc(Cl)c(C(=O)O)c3)ccc21 [CBK299841] | 90.8% |
| N#Cc1c(NC(=O)CSc2nnnn2-c2ccc(C(=O)O)cc2)sc2c1CCCC2 [CBK299876] | 87.6% |
| CC(C)c1ccc(-c2csc(Nc3cccc(C(=O)O)c3)n2)cc1 [CBK299880] | 104% |
| Cc1ccc(CN2CC(C(=O)N3CCC(C(=O)O)CC3)CC2=O)cc1 (stereo not shown) [CBK300205] | 91.8% |
| COc1ccc(CSc2nnc(SCc3ccc(C(=O)O)cc3)s2)cc1 [CBK300477] | 104% |
| Clc1ccc(Cn2ncc3c(NCc4cccnc4)ncnc32)cc1 [CBK300478] | 94.9% |
| Cc1ccc(OCC(=O)N2CCN(C(=O)c3ccncc3)CC2)cc1 [CBK300480] | 92.3% |
| Cc1ccc2oc(-c3cccc(NC(=O)c4ccccc4C(=O)O)c3)nc2c1 [CBK300481] | 109% |
| N=C(N)NC1=NC(=O)C(CC(=O)Nc2ccc(Oc3ccccc3)cc2)S1 (stereo not shown) [CBK300482] | 105% |
| Cc1ccc(OCCSc2nc3ccccc3n2CC(=O)O)c(C(C)C)c1 [CBK300483] | 105% |
| O=C(Nc1ncc(Cc2ccc(F)cc2)s1)c1csc2c1CCCC2 [CBK300489] | 90.2% |
| CCCCOc1ccc(C(=O)N/C(=C/c2ccco2)C(=O)Nc2cccc(C(=O)O)c2)cc1 [CBK300491] | 92.4% |
| CC(=O)NS(=O)(=O)c1ccc(NC(=O)/C=C/c2cccc([N+](=O)[O-])c2)cc1 [CBK300492] | 88.6% |
| Cc1nc(NC(=O)c2c(F)cccc2F)sc1C [CBK300495] | 76.1% |
| COc1cc(CNc2nnn[nH]2)cc(Br)c1OCc1ccc(Cl)cc1 [CBK300496] | 87.2% |
| O=C(O)c1cc(-c2ccc(-c3ccc(Cl)c(C(F)(F)F)c3)o2)nc2ccc(F)cc12 [CBK300501] | 111% |
| O=C(CCc1ccc(-c2ccc(F)cc2)o1)Nc1ccc(C(=O)O)cc1 [CBK300502] | 99% |
| O=C(O)CCSCC(=O)c1ccc(NS(=O)(=O)c2ccccc2)cc1 [CBK300504] | 97.5% |

| Compound | viability at 28.5 h, 10 µM |
| --- | --- |
| CCOc1cccc2cc(-c3cc(=O)oc4cc(C)c(O)cc34)oc12 [CBK300517] | 95.9% |
| COc1ccc(S(=O)(=O)Nc2ccc3oc(-c4ccccc4F)cc(=O)c3c2)cc1 [CBK300518] | 90.1% |
| O=C(CSc1ncnc2[nH]ncc12)c1ccc(-c2ccccc2)cc1 [CBK300519] | 88.4% |
| Cc1ccc(C(=O)CSc2nc(O)c3nc[nH]c3n2)cc1 [CBK300520] | 119% |
| Cc1c(C(=O)O)sc2nc(SC/C=C/c3ccccc3)nc(N)c12 [CBK300523] | 83.4% |
| COCCNC(=O)c1nnn(-c2ccc(Br)cc2)c1C [CBK300524] | 93.3% |
| COc1ccc(OCc2nc(C)cc(=O)n2CC(=O)NC(C)C)cc1 [CBK300525] | 99% |
| Cc1c(C(=O)Nc2ccc(C(=O)O)cc2)nnn1-c1ccc(Cl)cc1 [CBK300532] | 84.4% |
| Cc1ccccc1OCC(=O)N1CC(=O)Nc2ccccc21 [CBK300535] | 94% |
| O=C(c1ccccc1)c1ccc2n1CCC2C(=O)N1CCN(c2ccccc2)CC1 (stereo not shown) [CBK300536] | 115% |
| O=c1[nH]c(SCc2n[nH]c(=S)n2-c2ccccc2)nc2sc3c(c12)CCCC3 [CBK300538] | 118% |
| CCCCc1ccc(S(=O)(=O)c2cnc(SCC(=O)Nc3ccc(Cl)cc3)[nH]c2=O)cc1 [CBK300539] | 106% |
| O=c1[nH]nc2cc(SCc3ccc(Cl)cc3)ncn12 [CBK300540] | 107% |
| O=C(NCc1cccnc1)c1ccc(CSc2ccccc2)cc1 [CBK300544] | 101% |
| Cc1cc(=O)oc2cc(OCC(=O)Nc3ccc(S(=O)(=O)O)cc3)ccc12 [CBK301204N] | 89.6% |
| Nc1nc(SCc2nnc(S)n2-c2ccccc2)nc2sc3c(c12)CCC3 [CBK301216K] | 83.1% |
| CC(C)[C@H]1N=C2C=C(C(C)(C)C)ON2[C@H]2[C@H](O)[C@H](O)C[C@H]21 [CBK303234] | 90.1% |
| CC(C)(C)C1=CC2=NC3(CCCCC3)[C@@H]3C[C@@H](O)[C@@H](O)[C@@H]3N2O1 [CBK303235] | 111% |
| Cn1c2c(c(=O)n(C)c1=O)[C@H]1[C@H](O)[C@H](O)C[C@H]1[C@@H](C(O)c1ccccc1)N2 (stereo partly shown) [CBK303236] | 92.8% |
